Reference: US6054437A, “Method for inducing death of neoplastic cells using piperazine derivatives” (Hitachi Chemical Research Center, Inc., priority 1997, dated 2000)
Converted amounts (≈) assume the structure as drawn. Like-named read-outs stand apart in the source and are kept apart here.

Columns and labels:
[1] = test system: thiol protease, especially calcium-activated neutral protease (CANP); settings: cited from earlier work
[2] = in vivo; cited from earlier work
KB-3 (sensitive) = experiment: Cell survival assay with vinblastine, sensitive cells; assay type: cell-based, human; settings: Homo sapiens, read-out: vinblastine to kill 50% of cells
Procedure: (§1) where the effect of NCO-700 to enhance cancer cell killing by vinblastine was measured.
(§2) In the first two in vitro assays, the drug accumulation assay and the cell survival assay, a human pharyngeal carcinoma cell line (KB-V-1) which is highly resistant to anticancer drugs was used. This cell line was developed by Drs. Ira Pastan and Michael Gottesman of the National Cancer Institute, by step-wise selection in colchicine of drug-resistant cells. The control cancer cell line (KB-3), from which the resistant cell lines were derived, is sensitive to anticancer drugs. The resistant KB-V-1 cell line is approximately 275 times more resistant to vinblastine than the sensitive KB-3 line and has a greatly amplified mdr gene which generates the observed resistance.
(§3) The cell survival experiments shown above were performed by plating KB-3 (sensitive) and KB-V-1 (resistant) cells in 32 mm well plastic dishes at a cell density of 300-500 cells per well. Vinblastine and NCO-700 were added 16 hours after the initial cell plating. After 10 days of incubation at 37°, cell colonies were stained and counted.

KB-V-1 (resistant) [3] = settings: cited from earlier work
KB-V-1 (resistant cells) = experiment: Drug accumulation assay ([3H]-vinblastine), resistant cells; assay type: cell-based, human
Procedure: (§4) 1. Drug Accumulation Assays
(§5) where the effect of NCO-700 on the uptake of radioactive (^3 H)-vinblastine, an anticancer drug, is measured in cultured cancer cells, that are both drug-resistant and drug-sensitive (Reference 3).
as §2, with “drugs.” for “drugs. The resistant KB-V-1 cell line is approximately 275 times more resistant to vinblastine than the sensitive KB-3 line and has a greatly amplified mdr gene which generates the observed resistance.”
Measurement of [^3 H]-vinblastine accumulation was performed by the methods developed in the laboratory of Drs. […] In this method, KB-V-1 and KB-3 cells were plated in 10% fetal bovine serum at a density of 3×10^5 cells per well in 24-well Costar plates. The next day, the growth medium was replaced with Dulbecco's modified Eagle's medium with or without (control cells) 20 μM NCO-700. After ten minutes, the medium was removed and replaced with assay medium (0.5 ml) containing 0.1 μCi, (13 pmol) [^3 H]-vinblastine in the presence or absence of 20 μM NCO-700. After an additional 30 min, the medium was removed, the plates were washed three times in ice-cold phosphate-buffered saline, the cells were detached with trypsin, and radioactivity determined by scintillation counting.

KB-V-1 (resistant) [4] = experiment: Cell survival assay with vinblastine, resistant cells; assay type: cell-based, human; settings: Homo sapiens
Procedure: as §1, §2, §3

KB-3 (sensitive cells) = experiment: Drug accumulation assay ([3H]-vinblastine), sensitive cells; assay type: cell-based, human; settings: KB-3, control (vinblastine alone)
Procedure: as §4, §5, §2
Measurement of [^3 H]-vinblastine accumulation was performed by the methods developed in the laboratory of Drs. Gottesman and Pastan (Fojo et al., Cancer Res. 45:3002-3007, 1985). […] After an additional 30 min, the medium was removed, the plates were washed three times in ice-cold phosphate-buffered saline, the cells were detached with trypsin, and radioactivity determined by scintillation counting.

For `CCOC(=O)[C@H]1O[C@@H]1C(=O)N[C@@H](CC(C)C)C(=O)NCCC(C)C` [EST], the “thiol protease inhibitory activity” value [1] is given as “thiol protease inhibitory activity, especially calcium-activated neutral protease (CANP) inhibitory activity”.
In the case of `CC[C@]1(O)C[C@@H]2CN(CCc3c([nH]c4ccccc34)[C@@](C(=O)OC)(c3cc4c(cc3OC)N(C)[C@H]3[C@@](O)(C(=O)OC)[C@H](OC(C)=O)[C@]5(CC)C=CCN6CC[C@]43[C@@H]65)C2)C1` [vinblastine, reference compound], the side effects [2] is listed as “inevitable side effects such as hair loss, weight loss, and liver and kidney damage”, the IC50 (KB-3 (sensitive)) is listed as 0.0032 µg/mL (≈ 0.00395 µM) and the “resistance to vinblastine, KB-V-1 versus KB-3” value (KB-V-1 (resistant) [3]) is listed as “approximately 275 times”. The vinblastine accumulation (KB-V-1 (resistant cells); KB-V-1, control (vinblastine alone)) was 0.29 ± 0.03 pmole vinblastine/mg protein, the “accumulation of vinblastine (in words)” value (KB-V-1 (resistant cells); drug-resistant cell line) was “severely restricted” and the IC50 (KB-V-1 (resistant) [4]; KB-V1, read-out: level of vinblastine needed to kill 50% of the tumor cells) was 0.825 µg/mL (≈ 1.02 µM). For the same molecule, the IC50 (KB-V-1 (resistant) [4]; KB-V1, read-out: vinblastine to kill 50% of cells) was 0.792 µg/mL (≈ 0.977 µM) and the vinblastine accumulation (KB-3 (sensitive cells)) was 2.99 ± 0.12 pmole vinblastine/mg protein.
